Measurements taken from the SangsterLogP compilation.

Row | Structure (SMILES) | logP
1 | O=C(O[C@@H]1O[C@H](CO)[C@@H](O)[C@H](O)[C@H]1O)c1cc(O)c(O)c(O)c1 | -1.89
2 | O=C(OC[C@H]1OC(O)[C@@H]2OC(=O)c3cc(O)c(O)c(O)c3-c3c(cc(O)c(O)c3O)C(=O)O[C@H]2[C@@H]1OC(=O)c1cc(O)c(O)c(O)c1-c1c(O)c(O)c2oc(=O)c3cc(O)c(O)c4oc(=O)c1c2c43)c1cc(O)c(O)c(O)c1 (stereo not given in full) | -2.15
3 | O=C(O[C@@H]1Cc2c(O)cc(O)cc2O[C@@H]1c1cc(O)c(O)c(O)c1)c1cc(O)c(O)c(O)c1 | 1.08
4 | O=C(O[C@@H]1COC(=O)c2cc(O)c(O)c(O)c2-c2c(cc(O)c(O)c2O)C(=O)OC1[C@@H]1OC(=O)c2cc(O)c(O)c(O)c2-c2c(O)c(O)c(O)c3c2C(=O)O[C@H]1[C@H]3O)c1cc(O)c(O)c(O)c1 (stereo not given in full) | 1.28
5 | O=C(OCC1O[C@@H](O)C(O)(COC(=O)c2cc(O)c(O)c(O)c2)C1OC(=O)c1cc(O)c(O)c(O)c1)c1cc(O)c(O)c(O)c1 (stereo not given in full) | 0.61
6 | O=CC1OC(=O)c2cc(O)c(O)c(O)c2-c2c(cc(O)c(O)c2O)C(=O)OC1C1OC(=O)c2cc(O)c(O)c(O)c2-c2c(O)c(O)c3oc(=O)c4c(c(O)c(O)c5oc(=O)c2c3c54)-c2c(cc(O)c(O)c2O)C(=O)OCC1O (stereo not given) | -2.7
7 | O=C(O[C@H]1Cc2c(O)cc(O)cc2O[C@H]1c1ccc(O)c(O)c1)c1cc(O)c(O)c(O)c1 | 1.68
8 | O=C1OC[C@H]2OC(O)[C@@H]3OC(=O)c4cc(O)c(O)c(O)c4-c4c(cc(O)c(O)c4O)C(=O)O[C@H]3[C@@H]2OC(=O)c2cc(O)c(O)c(O)c2-c2c1cc(O)c(O)c2O (stereo not given in full) | -2.1
9 | Oc1cc(O)c2c(c1)OC(c1ccc(O)c(O)c1)C(O)C2c1c(O)cc(O)c2c1O[C@H](c1ccc(O)c(O)c1)[C@@H](O)C2 (stereo in doubt) | -0.52
10 | O=CC(O)(COC(=O)c1cc(O)c(O)c(O)c1)C(O)C(O)COC(=O)c1cc(O)c(O)c(O)c1 (stereo not given) | -0.35
11 | COc1cc(O)c2c(=O)cc(C)oc2c1 | 1
12 | O=C(O[C@@H]1O[C@@H]2COC(=O)c3cc(O)c(O)c(O)c3-c3c(cc(O)c(O)c3O)C(=O)O[C@H]2[C@@H]2OC(=O)c3cc(O)c(O)c(O)c3-c3c(cc(O)c(O)c3O)C(=O)O[C@@H]12)c1cc(O)c(O)c(O)c1 | -1.07
13 | O=C(OCC1OC(OC(=O)c2cc(O)c(O)c(O)c2)C(O)C(O)C1O)c1cc(O)c(O)c(O)c1 (stereo not given) | -0.33
14 | O=c1c(O[C@@H]2O[C@H](CO)[C@@H](O)[C@H](O)[C@H]2O)c(-c2ccc(O)c(O)c2)oc2cc(O)cc(O)c12 | 0.7
15 | O=C(O[C@@H]1O[C@@H]2COC(=O)c3cc(O)c(O)c(O)c3-c3c(cc(O)c(O)c3O)C(=O)O[C@H]([C@H]1O)[C@@H]2O)c1cc(O)c(O)c(O)c1 | -1.19
